Measured values: patent US12441723B2, “Pyrazole compounds, formulations thereof, and a method for using the compounds and/or formulations” (Rigel Pharmaceuticals, Inc., priority 2019, dated 2025)
Structures can show the parent of a compound that is named as a salt.

Key:
Assay type in all cases: physicochemical
[1] = Modulated DSC glass transition temperature; settings: mDSC, reversing heat flow versus temperature
Procedure: FIG. 5 is a modulated DSC (mDSC) plot of reversing heat flow versus temperature, illustrating the heat flow for one embodiment of the spray-dried formulation and showing that the glass transition temperature (Tg) for that embodiment is 108.3° C.
FIG. 10 is an mDSC plot of reversing heat flow versus temperature, illustrating the heat flow for a […] sample of compound I-1, and showing that the glass transition temperature (Tg) for the […] sample is 106.1° C.

[2] = DVS isotherm, spray-dried formulation versus crystalline compound I-1; settings: DVS at 25° C.; crystalline compound I-1 compared with the spray-dried dispersion
Procedure: FIG. 1 is a dynamic vapor sorption (DVS) plot of percent change in mass versus target relative humidity (RH), illustrating the change in mass of one embodiment of the disclosed spray-dried formulation at 25° C. under various relative humidity conditions. The plot provides two isotherms: 1 is the sorption plot, illustrating the change in mass with increasing relative humidity steps; and 2 is the desorption plot, illustrating the change in mass with decreasing relative humidity steps.
FIG. 6 is a DVS plot of percent change in mass versus target relative humidity, illustrating the change in mass of one embodiment of a crystalline sample of compound I-1 at 25° C. under various relative humidity conditions. The plot provides two isotherms: 1 is the sorption plot, illustrating the change in mass with increasing relative humidity steps; and 2 is the desorption plot, illustrating the change in mass with decreasing relative humidity steps.
FIGS. 1-10 provide structural and stability data concerning the spray-dried formulation (FIGS. 1-5) and a crystalline sample of compound I-1 (FIGS. 6-10). FIGS. 1 and 6 provide DVS isotherm plots for the spray-dried formulation and crystalline compound, respectively.

[3] = Physical and chemical stability of salts of I-18, 1 week (XRPD, HPLC purity); settings: for Area (%) of HPLC peak RRT 1.00: main peak; for Area (%) of HPLC peak RRT 1.17: peak = parent compound formed by hydrolysis; for Form change: XRPD
Procedure: The physical and chemical stability of the K salt, Arginine salt, Choline salt and Tris salt were evaluated under conditions of 25° C./60% RH and 40° C./75% RH for 1 week. Each sample was added into 3 mL glass vials, sealed by parafilm with several holes, and kept under tested condition. After one week, samples was taken for XRPD and HPLC purity test.

[4] = Hygroscopicity evaluation by DVS of salts of I-18; settings: 25° C., judged from uptake at 80% RH
Procedure: To investigate the solid form stability as a function of humidity, DVS isotherm plot of the K salt, Arginine salt, Choline salt and Tris salt were collected at 25° C. between 0 and 95% RH.

[5] = 25° C./60% RH, 1 week, listed as arginine salt
[6] = 40° C./75% RH, 1 week, listed as arginine salt
[7] = Initial, listed as arginine salt

With `CCO[C@H]1CC[C@H](n2cc(NC(=O)c3csc(-c4cn[nH]c4)n3)c(-c3nc(F)ccc3F)n2)CC1` [I-1, N-(3-(3,6-difluoropyridin-2-yl)-1-((1r,4r)-4-ethoxycyclohexyl)-1H-pyrazol-4-yl)-2-(1H-pyrazol-4-yl)thiazole-4-carboxamide] the “glass transition temperature (Tg)” value [1] was 106.1 °C and the “change in mass when exposed to higher relative humidity” value [2] was “substantially smaller change in mass”.
In the case of `CCO[C@H]1CC[C@H](n2cc(NC(=O)c3csc(-c4cnn(C(C)OP(=O)(O)O)c4)n3)c(-c3nc(F)ccc3F)n2)CC1` (some centres unmarked) [I-110, 1-(4-(4-((3-(3,6-difluoropyridin-2-yl)-1-((1r,4r)-4-ethoxycyclohexyl)-1H-pyrazol-4-yl)carbamoyl)thiazol-2-yl)-1H-pyrazol-1-yl)ethyl dihydrogen phosphate arginine salt], the “Area (%) of HPLC peak RRT 1.13” value ([3]; 25° C./60% RH, 1 week) is reported as 0.06%, the “Area (%) of HPLC peak RRT 0.77” value [3, 5] is reported as 0.03% and the “Area (%) of HPLC peak RRT 1.35” value [3, 5] is reported as 0.06%. The “Area (%) of HPLC peak RRT 1.45” value [3, 5] was 0.50%, the “Area (%) of HPLC peak RRT 1.71” value [3, 5] was 0.74% and the “Area (%) of HPLC peak RRT 1.73” value [3, 5] was 0.61%. The HPLC purity change [3, 5] was “slight purity decrease”, the “Area (%) of HPLC peak RRT 1.00” value [3, 5] was 95.31% and the “Area (%) of HPLC peak RRT 1.17” value [3, 5] was 2.68%. The Form change ([3]; 25° C./60% RH/1 week, listed as Arginine salt) was “no form change and No”, the “Area (%) of HPLC peak RRT 1.13” value ([3]; 40° C./75% RH, 1 week) was 0.06% and the “Area (%) of HPLC peak RRT 0.77” value [3, 6] was 0.04%. The “Area (%) of HPLC peak RRT 1.35” value [3, 6] was 0.11%, the “Area (%) of HPLC peak RRT 1.45” value [3, 6] was 0.47% and the “Area (%) of HPLC peak RRT 1.71” value [3, 6] was 0.73%. The “Area (%) of HPLC peak RRT 1.73” value [3, 6] was 0.60%, the HPLC purity change [3, 6] was “slight purity decrease” and the “Area (%) of HPLC peak RRT 1.00” value [3, 6] was 95.50%. For the same compound, the “Area (%) of HPLC peak RRT 1.17” value [3, 6] was 2.48%, the Form change ([3]; 40° C./75% RH/1 week, listed as Arginine salt) was “no form change and No” and the “Initial purity (area %)” value ([3]; HPLC, before storage, listed as Arginine salt) was 95.91 area %. For the same compound, the “Area (%) of HPLC peak RRT 1.35” value ([3]; Initial) was under 0.03%, the “Area (%) of HPLC peak RRT 0.77” value [3, 7] was under 0.03% and the “Area (%) of HPLC peak RRT 1.13” value [3, 7] was under 0.03%. For the same compound, the “Area (%) of HPLC peak RRT 1.45” value [3, 7] was 0.44%, the “Area (%) of HPLC peak RRT 1.71” value [3, 7] was 0.73% and the “Area (%) of HPLC peak RRT 1.73” value [3, 7] was under 0.53%. For the same compound, the “Area (%) of HPLC peak RRT 1.00” value [3, 7] was 95.91%, the “Area (%) of HPLC peak RRT 1.17” value [3, 7] was 2.39% and the hygroscopicity [4] was “slight hygroscopic”.
